{"source": "paper PMC4372144", "about": "(Nature communications, 2015)", "tested_on": "Type II collagenase", "assay": "Peptide cleavage kinetics, modified fluorescamine assay, Type II collagenase", "assay_type": "biochemical", "details": "1 U ml^−1 Type II collagenase, pH 7.4, 37°C, duration of the assay 9 hours, fluorescamine read-out", "data": [{"substance": "GCEE-NGGSGGSN-GGGH-Methacrylate [Non-degradable peptide]", "values": [{"measurement": "protease-mediated cleavage of peptide", "value": "not detectable"}]}]}
